Assay [1] has as its target Tyrosine-protein kinase Yes (Homo sapiens) (UniProt P07947). Kind of assay: Selectivity interaction (Kinase panel (Z-LYTE Assay)) EUB0001632a YES1. The settings on record: at 10 µM.
For assay [2], the system named is Tyrosine-protein kinase ABL1 (Homo sapiens), P00519 [H396P]. Kind of assay: Selectivity interaction (KinomeScan (DiscoverX)) EUB0001079a ABL1. The settings on record: at 1 µM.
For assay [3], the target named is T1, Ephrin type-B receptor 6 (Homo sapiens) (UniProt O15197).
T1 sequence (whole entry): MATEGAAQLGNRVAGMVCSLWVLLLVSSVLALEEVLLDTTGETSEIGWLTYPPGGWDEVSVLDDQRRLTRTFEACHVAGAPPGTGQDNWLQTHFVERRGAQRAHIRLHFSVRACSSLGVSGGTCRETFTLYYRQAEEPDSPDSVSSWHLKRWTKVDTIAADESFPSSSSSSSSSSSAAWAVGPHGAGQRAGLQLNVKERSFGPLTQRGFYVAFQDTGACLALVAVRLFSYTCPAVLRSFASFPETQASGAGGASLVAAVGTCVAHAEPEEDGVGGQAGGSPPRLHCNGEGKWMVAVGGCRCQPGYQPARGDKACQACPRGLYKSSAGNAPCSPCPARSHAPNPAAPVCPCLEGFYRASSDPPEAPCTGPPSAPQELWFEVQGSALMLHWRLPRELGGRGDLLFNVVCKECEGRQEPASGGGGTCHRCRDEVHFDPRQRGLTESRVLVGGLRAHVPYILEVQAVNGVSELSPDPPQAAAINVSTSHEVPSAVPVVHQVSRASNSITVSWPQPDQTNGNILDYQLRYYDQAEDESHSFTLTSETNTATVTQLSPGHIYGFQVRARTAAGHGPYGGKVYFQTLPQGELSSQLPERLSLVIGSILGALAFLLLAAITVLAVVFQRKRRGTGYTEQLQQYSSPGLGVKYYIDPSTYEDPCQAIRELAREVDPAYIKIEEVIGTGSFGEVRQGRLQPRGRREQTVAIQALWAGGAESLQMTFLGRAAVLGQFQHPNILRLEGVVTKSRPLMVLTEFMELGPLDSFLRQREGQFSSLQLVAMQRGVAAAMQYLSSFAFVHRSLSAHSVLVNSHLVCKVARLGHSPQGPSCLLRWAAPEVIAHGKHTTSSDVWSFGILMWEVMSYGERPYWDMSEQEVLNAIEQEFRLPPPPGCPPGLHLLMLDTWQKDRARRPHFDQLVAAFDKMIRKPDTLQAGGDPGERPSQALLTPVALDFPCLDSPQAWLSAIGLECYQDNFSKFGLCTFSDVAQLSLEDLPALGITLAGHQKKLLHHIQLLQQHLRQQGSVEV
Kind of assay: Selectivity interaction (KinomeScan (DiscoverX)) EUB0001079a EPHB6. To be noted: at 1 µM.

Assay [4] addresses T2, Cyclin-dependent kinase-like 2 (Homo sapiens) (UniProt Q92772).
T2 sequence (whole entry): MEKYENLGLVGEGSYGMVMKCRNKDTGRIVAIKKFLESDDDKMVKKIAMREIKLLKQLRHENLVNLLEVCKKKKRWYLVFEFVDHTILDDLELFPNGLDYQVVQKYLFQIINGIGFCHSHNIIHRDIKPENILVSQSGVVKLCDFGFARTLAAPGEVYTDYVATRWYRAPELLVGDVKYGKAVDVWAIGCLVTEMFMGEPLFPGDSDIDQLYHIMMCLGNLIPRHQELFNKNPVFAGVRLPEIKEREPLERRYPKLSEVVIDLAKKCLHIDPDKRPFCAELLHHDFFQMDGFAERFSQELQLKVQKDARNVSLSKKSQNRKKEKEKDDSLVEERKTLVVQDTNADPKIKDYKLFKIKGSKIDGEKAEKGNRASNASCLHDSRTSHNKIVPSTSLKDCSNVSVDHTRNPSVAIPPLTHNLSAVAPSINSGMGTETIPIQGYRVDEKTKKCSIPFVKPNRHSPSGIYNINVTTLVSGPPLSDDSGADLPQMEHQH
The experiment in a line: Selectivity interaction (KinomeScan (DiscoverX)) EUB0001619a CDKL2. To be noted: at 1 µM.

The target in assay [5] is Serine/threonine-protein kinase N2 (Homo sapiens, UniProt Q16513). Kind of assay: Selectivity interaction (ActivX KiNativ screen (kinase selectivity in THP-1 cell lysates)) EUB0000639a PKN2. The format is subcellular. To be noted: lysate.
Assay [6] deals with Phosphatidylinositol 4-phosphate 5-kinase type-1 alpha (Homo sapiens) (UniProt Q99755). To be noted: at 10 µM.
For assay [7], the target named is Cyclin-dependent kinase 2 (Homo sapiens, UniProt P24941). Kind of assay: Selectivity interaction (Kinase panel (DSF assay)) EUB0001559a CDK2.
Assay [8] has as its target T3, MAP kinase-activated protein kinase 5 (Homo sapiens) (UniProt Q8IW41).
T3 sequence (whole entry): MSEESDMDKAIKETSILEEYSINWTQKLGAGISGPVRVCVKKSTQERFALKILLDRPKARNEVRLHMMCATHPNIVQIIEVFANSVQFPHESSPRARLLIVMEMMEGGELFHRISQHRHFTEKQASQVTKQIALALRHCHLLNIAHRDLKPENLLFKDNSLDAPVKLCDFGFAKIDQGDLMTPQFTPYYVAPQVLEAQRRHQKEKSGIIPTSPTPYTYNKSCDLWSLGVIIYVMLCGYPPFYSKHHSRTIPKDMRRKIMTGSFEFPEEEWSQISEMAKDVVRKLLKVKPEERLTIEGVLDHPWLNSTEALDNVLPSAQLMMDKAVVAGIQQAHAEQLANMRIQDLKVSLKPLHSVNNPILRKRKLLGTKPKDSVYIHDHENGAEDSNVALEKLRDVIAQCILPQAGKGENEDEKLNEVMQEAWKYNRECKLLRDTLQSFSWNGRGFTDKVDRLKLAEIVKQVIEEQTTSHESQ
The experiment in a line: Selectivity interaction (KinomeScan (DiscoverX)) EUB0000045b MAPKAPK5.

Assay [9] deals with T4, Uncharacterized serine/threonine-protein kinase SBK3 (Homo sapiens) (UniProt P0C264).
T4 sequence (whole entry): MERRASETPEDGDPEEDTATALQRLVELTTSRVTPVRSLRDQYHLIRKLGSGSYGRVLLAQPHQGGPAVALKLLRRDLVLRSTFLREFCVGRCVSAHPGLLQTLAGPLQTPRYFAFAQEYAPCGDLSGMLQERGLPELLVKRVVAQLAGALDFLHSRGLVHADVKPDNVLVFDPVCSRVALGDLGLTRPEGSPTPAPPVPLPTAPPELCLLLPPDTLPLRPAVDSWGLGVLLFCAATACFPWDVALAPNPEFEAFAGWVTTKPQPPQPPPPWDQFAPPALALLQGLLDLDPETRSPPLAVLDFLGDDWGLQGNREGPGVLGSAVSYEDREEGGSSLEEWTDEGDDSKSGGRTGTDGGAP
The experiment in a line: Selectivity interaction (KinomeScan (DiscoverX)) EUB0000045b SBK3.

Serine/threonine-protein kinase N2, sequence (Q16513 whole entry, looked up): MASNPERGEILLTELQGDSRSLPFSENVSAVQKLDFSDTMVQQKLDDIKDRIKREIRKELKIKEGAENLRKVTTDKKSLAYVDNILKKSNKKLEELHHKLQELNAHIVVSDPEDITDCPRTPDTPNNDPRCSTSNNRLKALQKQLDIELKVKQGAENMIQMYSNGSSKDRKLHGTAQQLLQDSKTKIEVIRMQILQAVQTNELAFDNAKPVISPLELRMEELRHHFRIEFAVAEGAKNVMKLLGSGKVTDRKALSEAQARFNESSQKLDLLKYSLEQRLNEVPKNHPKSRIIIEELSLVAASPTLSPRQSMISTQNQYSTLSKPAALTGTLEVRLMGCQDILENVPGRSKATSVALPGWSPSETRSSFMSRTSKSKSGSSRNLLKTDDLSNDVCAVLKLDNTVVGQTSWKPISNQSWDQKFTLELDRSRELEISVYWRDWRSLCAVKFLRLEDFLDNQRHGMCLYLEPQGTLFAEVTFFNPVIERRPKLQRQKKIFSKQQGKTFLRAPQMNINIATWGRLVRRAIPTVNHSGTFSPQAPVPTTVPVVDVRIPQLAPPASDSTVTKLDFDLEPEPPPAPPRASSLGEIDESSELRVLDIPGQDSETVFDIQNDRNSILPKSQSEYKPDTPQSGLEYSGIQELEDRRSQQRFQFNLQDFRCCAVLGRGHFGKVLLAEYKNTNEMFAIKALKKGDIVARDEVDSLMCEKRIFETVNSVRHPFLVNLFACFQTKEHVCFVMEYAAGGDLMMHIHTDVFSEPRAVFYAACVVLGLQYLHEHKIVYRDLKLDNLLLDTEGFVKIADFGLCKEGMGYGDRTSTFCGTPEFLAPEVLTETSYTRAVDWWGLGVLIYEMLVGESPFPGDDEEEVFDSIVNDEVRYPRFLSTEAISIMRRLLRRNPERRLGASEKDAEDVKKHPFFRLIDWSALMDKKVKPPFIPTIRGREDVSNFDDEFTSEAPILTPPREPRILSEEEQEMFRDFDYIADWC
Tyrosine-protein kinase Yes (Homo sapiens), sequence (P07947 2-543 limits assumed): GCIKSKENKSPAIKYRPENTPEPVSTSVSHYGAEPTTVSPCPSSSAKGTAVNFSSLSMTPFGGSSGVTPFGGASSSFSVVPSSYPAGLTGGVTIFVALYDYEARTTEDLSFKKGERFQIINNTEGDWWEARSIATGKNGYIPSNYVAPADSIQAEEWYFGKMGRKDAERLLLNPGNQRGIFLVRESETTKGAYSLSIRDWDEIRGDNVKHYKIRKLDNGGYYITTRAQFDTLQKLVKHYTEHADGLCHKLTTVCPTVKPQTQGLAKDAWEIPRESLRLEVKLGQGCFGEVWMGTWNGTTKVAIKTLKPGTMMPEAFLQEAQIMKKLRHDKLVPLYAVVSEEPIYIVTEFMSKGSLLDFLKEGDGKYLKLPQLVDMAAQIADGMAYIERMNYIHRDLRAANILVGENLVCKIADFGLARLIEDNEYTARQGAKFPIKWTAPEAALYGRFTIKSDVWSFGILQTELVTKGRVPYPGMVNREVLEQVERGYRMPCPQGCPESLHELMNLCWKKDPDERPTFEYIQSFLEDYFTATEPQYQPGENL
Phosphatidylinositol 4-phosphate 5-kinase type-1 alpha (Homo sapiens), sequence (Q99755 whole entry): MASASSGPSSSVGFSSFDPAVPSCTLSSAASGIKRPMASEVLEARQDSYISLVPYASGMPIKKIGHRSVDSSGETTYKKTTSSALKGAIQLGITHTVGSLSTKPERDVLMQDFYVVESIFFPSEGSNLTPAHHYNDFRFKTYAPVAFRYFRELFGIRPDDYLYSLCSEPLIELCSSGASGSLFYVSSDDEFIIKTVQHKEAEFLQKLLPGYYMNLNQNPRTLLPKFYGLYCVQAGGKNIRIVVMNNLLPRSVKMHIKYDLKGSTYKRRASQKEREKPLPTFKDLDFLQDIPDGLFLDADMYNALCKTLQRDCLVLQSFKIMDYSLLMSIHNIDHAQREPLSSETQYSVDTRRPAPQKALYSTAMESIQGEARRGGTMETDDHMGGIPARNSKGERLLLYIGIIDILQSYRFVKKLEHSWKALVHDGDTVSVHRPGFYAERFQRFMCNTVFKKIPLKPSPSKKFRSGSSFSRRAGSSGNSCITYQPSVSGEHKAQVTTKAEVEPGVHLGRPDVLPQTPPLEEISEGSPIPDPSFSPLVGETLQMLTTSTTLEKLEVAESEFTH

For `Cn1cc(-n2cnc3c(NCc4nc5cc(Cl)c(Cl)cc5[nH]4)nc(N4CCOCC4)nc32)cn1`, the % of control in assay [1] stood at 0.787%.

Take `Nc1cnc(N2CCc3cc(S(=O)(=O)Nc4c(F)cc(Cl)cc4F)cc(N4CCCC4=O)c32)nc1` [TP-020n]: the values for the % of control in assay [2] and in assay [3] were 86% and 100%, respectively.

For the compound `N#Cc1cccc(-c2c[nH]c3ncnc(N4CCOCC4)c23)c1`, the % of control in [4] is 98%.

For `CC[C@@H]1[C@H](F)C(=O)N[C@@H]1COc1nccc2cc(C(N)=O)c(OC)cc12` [ZIMLOVISERTIB], the % of inhibition in assay [5] (at 0.01 µM) was -6.1%; in assay [5] (at 0.04 µM) it was -5.7%; in assay [5] (at 0.2 µM), 2.9%; in [5] (at 1 µM) it was 18.9%; in assay [5] (at 5 µM) it was -9.1%.

In the case of `CCN(CC)CCCCNc1ncc2cc(-c3cc(OC)cc(OC)c3)c(NC(=O)NC(C)(C)C)nc2n1`, the % of control in assay [6] was 100%.

The compound `CN(C(=O)c1cnn2cccnc12)c1cc2c(cc1N1CCOCC1)C(=O)N(C[C@@H](F)C(C)(C)O)C2` had a dTM in assay [7] of -0.3 K.

In the case of `C=CC(=O)Nc1cc(-n2c(=O)ccc3cnc4ccc(-c5ccc(NS(C)(=O)=O)cc5)cc4c32)ccc1C`, the % of control in assay [8] (at 1 µM), in [8] (at 10 µM), in assay [9] (at 1 µM) and in assay [9] (at 10 µM) was 100% in each case.

The record behind these values is ChEMBL document CHEMBL5465560, “Selectivity Literature for EUbOPEN Chemogenomic Library” (2024).
